Source: patent publication US11180444B2, “Polyimino ketoaldehydes” (NOVUM SPERO LTD., priority 2017, dated 2021)
“Also recorded” adds a separate entry of the source.

How the values were obtained:
[1] = test system: Avian Pathogenic Escherichia coli multi-resistant strain; test: Inhibition zones, disc test; type: cell-based
[2] = test system: gram-positive and gram-negative bacteria including multi-resistant bacteria; test: In vitro testing of antibacterial properties; type: cell-based

## 1-amino-tetratriacontyl-henicosa-20-on-21-al [CM]
[1]; 10 μL of solution (350 μg/1 μL) per disc
  Inhibition zone: 8 mm
[1]; 15 μL of solution (350 μg/1 μL) per disc
  Inhibition zone: 9 mm
[1]; 20 μL of solution (350 μg/1 μL) per disc
  Inhibition zone: 10 mm
[1]; compared with antibiotics in their standard dose
  Inhibitory activity against the strain (in words): has an effect on the inhibition; also recorded: shows inhibitory activity
[2]
  Antibacterial properties (in words): shows antibacterial properties

## CC1(C)S[C@@H]2[C@H](NC(=O)[C@H](N)c3ccc(O)cc3)C(=O)N2[C@H]1C(=O)O [Amoxicillin, reference compound]
[1]; Escherichia coli, 25 μg per disc
  zone of inhibition at 25 µg/disc: 0 mm

## Cc1cc(C)nc(NS(=O)(=O)c2ccc(N)cc2)n1 [Sulfadimidine, reference compound]
[1]; Escherichia coli, 300 μg per disc
  zone of inhibition at 300 µg/disc: 0 mm

## CN(C)[C@@H]1C(O)=C(C(N)=O)C(=O)[C@@]2(O)C(O)=C3C(=O)c4c(O)cccc4[C@@](C)(O)[C@H]3C[C@@H]12 [Tetracycline, reference compound]
[1]; Escherichia coli, read-out: Inhibition zone
  zone of inhibition at 30 µg/disc: 0 mm

## Trimethoprim sulphate [reference compound]
[1]; 1.25 μg + 23.75 μg per disc
  Inhibition zone: 0 mm
